Experimental data as given in patent US20120321594A1, “METHODS OF CONTROLLING AXON OR DENDRITE DEVELOPMENT OF NEURONAL CELLS” (NEW YORK UNIVERSITY, priority 2011, published 2012).
Read-outs that look alike come from different tables or passages of the source.

Assays:
cultured xSCINs = assay: Neurite identity (tau-1 / MAP2 immunocytochemistry) of cultured xSCINs; assay type: cell-based, Xenopus laevis
Method: Capped messenger RNAs encoding NP1-0111, hSema3A, mCav2.3α1E, and green fluorescent protein (GFP) were synthesized with mMESSAGE mMACHINE (Ambion Inc.) and purified on NucAway™ Spin Columns (Ambion Inc.) as described by the manufacturer. […] Each blastomere was injected with 4 to 8 nl of 0.5 μg·ul^−1 NPI-0111, 0.5 μg·μl^−1 hSema3A, or 0.5 μg·μl^−mCav2.3α1E mRNA and 0.25 μg·μl^−1 GFP mRNA as an expression indicator. Primary Xenopus spinal neurons derived from developmental stage 26 embryos were cultured at 23° C.-25° C. for 16-20 hours and used for growth cone electrophysiology (FIGS. 2A-2E; FIGS. 3A-3C) and immunocytochemistry (FIGS. 4A and 4B). To examine the neurite identity and expression of functional AMPA receptor channels (FIGS. 5A-5C), cells were plated on cover glasses that had been coated for four to six hours each with poly-L-lysine (100 μg·ml^−1) and laminin (80 μg·ml^−1) and incubated for three to four hours at 23° C.-25° C. prior to use.
Sema3A (2 U·ml^−1) and netrin-1 (5 ng·ml^−1) were prepared as described (Nishiyama et al., “Membrane Potential Shifts Caused by Diffusible Guidance Signals Direct Growth-Cone Turning,” Nat. Neurosci. 11:762-771 (2008); Togashi et al., “Cyclic GMP-Gated CNG Channels Function in Sema3A-Induced Growth Cone Repulsion,” Neuron 58:694-707 (2008); Goshima, “A Novel Action of Collapsin: Collapsin-1 Increases Antero- and Retrograde Axoplasmic Transport Independently of Growth Cone Collapse,” J. Neurobiol. 33:316-328 (1997); Hong et al., “Calcium Signalling in the Guidance of Nerve Growth by Netrin-1,” Nature 403:93-98 (2000); Nishiyama et al., “Cyclic AMP/GMP-Dependent Modulation of Ca^2+ Channels Sets the Polarity of Nerve Growth-Cone Turning,” Nature 423:990-995 (2003); Hong et al., “A Ligand-Gated Association Between Cytoplasmic Domains of UNC5 and DCC Family Receptors Converts Netrin-Induced Growth Cone Attraction to Repulsion,” Cell 97:927-941 (1999), which are hereby incorporated by reference in their entirety). To test the conversion of the identities of individual neurites and for growth cone electrophysiology, 2,000 U/ml Sema3A (in micropipettes) was applied as a gradient. The biological activity of Sema3A (U·ml^−1) was evaluated using a collapse assay of chick DRG neurons (Goshima, “A Novel Action of Collapsin: Collapsin-1 Increases Antero- and Retrograde Axoplasmic Transport Independently of Growth Cone Collapse,” J. Neurobiol. 33:316-328 (1997), which is hereby incorporated by reference in its entirety). All pharmacological agents were bath-applied 30 min before experiments were performed unless otherwise indicated. Agonist and antagonists were purchased from Calbiochem, Peptide Institute, Sigma, and Tocris.

[1] = tested on: MAP2-positive dendrites of Xenopus spinal cord; assay: Whole-mount MAP2 immunohistochemistry of spinal cords (dendrite identity in vivo); design: species or system Xenopus laevis; conditions: for MAP2-IR in the MO-injected side of spinal cords: stage 42, compared to the uninjected side
[2] = tested on: tau-1-positive axons of Xenopus spinal cord; design: species or system Xenopus laevis; conditions: in vivo
Cav2.3 channels = assay: Whole-cell Ca^2+ currents at growth cones of cultured xSCINs, isolated Cav2.3 (R-type) currents; assay type: cell-based, Xenopus laevis
Method: To test the conversion of the identities of individual neurites and for growth cone electrophysiology, 2,000 U/ml Sema3A (in micropipettes) was applied as a gradient. […] All pharmacological agents were bath-applied 30 min before experiments were performed unless otherwise indicated.

xCav2.3α1E = assay: Whole-mount immunostaining of xCav2.3α1E expression in spinal cords; assay type: in vivo, Xenopus laevis
Cav2.3α1E = Cav2.3α1E immunoreactivity in cultured xSCINs; assay type: cell-based, Xenopus laevis; conditions: pre-treatment with the agent
Method: Sema3A and +CHX, respectively, indicate treatment with Sema3A (2 U·ml−1) for 10 min or with Sema3A (2 U·ml−1) for 10 min after a one-minute pre-administration of cycloheximide (25 μM). FIG. 16B is a graph showing a summary of Cav2.3α1E immunoreactivity (IR, AU) in each experimental condition. […] FIGS. 16D and 16E are immunofluorescence images (FIG. 16D) and summaries (FIG. 16E) of Cav2.3α1E IR in Xenopus spinal cords either without (Control) or with (+CHX) local injection of cycloheximide (2.5 mM). Cav2.3α1E IR was normalized against that of control animals. For uninjected controls, the right sides of spinal cords were normalized against the left sides. Scale bars, 20 μm; data are mean±s.e.m; (n) =number of cultures (150 to 200 neurons, FIG. 16B) spinal cords examined (FIG. 16E). Significant difference from the control is indicated (**p<0.01). […]

xSema3A = assay: Whole-mount immunostaining of xSema3A expression in spinal cords; conditions: stage 30-32 spinal cords
[3] = tested on: MAP2 to tau-1 ratio in Xenopus spinal cords; design: species or system Xenopus laevis; conditions: in vivo
[4] = tested on: putative CINs of Xenopus spinal cord; assay: Imaging of individual spinal neurons (Texas Red dextran) in MO-injected spinal cords; assay type: in vivo, Xenopus laevis; conditions: stage 42 tadpole spinal cords
[5] = injected into hindbrain and spinal cord of stage 30-32 tailbuds
[6] = xSema3A-A-MO in one side of spinal cords
[7] = xSCINs cultured on laminin, treated for three hours

Compound: ω-conotoxin GVIA
- Sema3A-induced conversion of tau-1-positive axons to MAP2-positive dendrites in the presence of the agent (cultured xSCINs): neither L-types (nimodipine) nor N-types (ω-conotoxin GVIA) prevented the conversion
- MAP2-IR / dendrite formation after local administration ([1]; in vivo): no significant effect
- tau-1-IR after local administration into the spinal cord [2]: neither nimodipine (FIG. 6F and bottom panel, labeled f; FIG. 6G) nor w-conotoxin GVIA (FIG. 6G) had significant effect

Compound: COCCOC(=O)C1=C(C)NC(C)=C(C(=O)OC(C)C)C1c1cccc([N+](=O)[O-])c1 (centres unmarked) [nimodipine]
- MAP2-IR / dendrite formation after local administration ([1]; in vivo): no significant effect

Compound: O=c1onc2cnc3ccccc3n12 [ODQ, 1H-[1,2,4]oxadiazolo[4,3-a]quinoxalin-1-one]
- Rp-8-pCPT-cGMPS-induced Cav2.3 currents in the presence of the agent (Cav2.3 channels; agent as pretreatment / in the bath): not affected
- Sema3A-induced Cav2.3 currents in the presence of the agent (Cav2.3 channels; gradient of Sema3A on xSCIN growth cones, agent added): prevented
- MAP2-IR / dendrite formation after local administration [1, 5]: abolished
- appearance of dendrites in the presence of the xCav2.3 ([1]; local administration, A-MO in one side of spinal cords (FIGS. 15L, 15M)): prevented the appearance of dendrites
- expression of xCav2.3α1E after local administration (xCav2.3α1E; [5]): abolished
- expression of xCav2.3α1E after local administration in the absence of Sema3A (xCav2.3α1E; [6]): significant reduction

Compound: Nc1nc2c(nc(Sc3ccc(Cl)cc3)n2[C@@H]2O[C@@H]3CO[P@@](=O)(S)O[C@H]3[C@H]2O)c(=O)[nH]1 [Rp-8-pCPT-cGMPS]
- Cav2.3 currents induced by a gradient of the agent alone (Cav2.3 channels): induced Cav2.3 currents
- Sema3A-induced Cav2.3 currents in the presence of the agent (Cav2.3 channels): pre-empted
- MAP2-IR / dendrite formation after local administration ([1]; in vivo): drastically reduced
- appearance of dendrites in the presence of the xCav2.3 ([1]; in vivo): prevented the appearance of dendrites
- expression of xCav2.3α1E after local administration (xCav2.3α1E; in vivo): significant increase
- expression of xCav2.3α1E after local administration in the absence of Sema3A (xCav2.3α1E; in vivo): induced the expression of xCav2

Compound: C[C@@H]1C[C@@H]([C@H](O)CC2CC(=O)NC(=O)C2)C(=O)[C@@H](C)C1 [cycloheximide]
- Rp-8-pCPT-cGMPS-induced Cav2.3 currents in the presence of the agent (Cav2.3 channels): eliminated
- expression of xCav2.3α1E after local administration (xCav2.3α1E; in vivo): eliminated
- Sema3A-induced expression of Cav2.3 in vitro after pre-treatment (Cav2.3α1E): eliminated

Compound: xSema3A-A-MO: antisense morpholino oligonucleotide against xSema3A mRNA (SEQ ID NO: 8) (antisense ATGCAATCCAGGTCAGAGAGCCCAT; all phosphorodiamidate morpholino (PMO))
- MAP2-IR in the MO-injected side of spinal cords [1]: significantly reduced
- expression of xCav2.3α1E in the MO-injected side (xCav2.3α1E; stage 34): reduced markedly
- expression of xSema3A in the MO-injected side (xSema3A): reduced significantly

Compound: SNX-482 (GVDKAGCRYMFGGCSVNDDCCPRLGCHSLFSYCAWDLTFSD)
- Sema3A-induced Cav2.3 currents in the presence of the agent (Cav2.3 channels): abolished
- Sema3A-induced conversion of tau-1-positive axons to MAP2-positive dendrites in the presence of the agent (cultured xSCINs): prevented
- MAP2-positive dendrites after local administration, 45 μM ([1]; in vivo): eliminated almost all dendrites
- MAP2-positive dendrites after local administration, lower doses ([1]; in vivo): significant reductions
- tau-1-IR after local administration into the spinal cord [2]: significant increase
- ratio of MAP2 to tau-1 in total protein extracted from spinal cords [3]: significantly lower

Compound: Nc1nc2c(nc(Br)n2[C@@H]2O[C@@H]3COP(=O)(O)O[C@H]3[C@H]2O)c(=O)[nH]1 [8-Br-cGMP]
- MAP2-IR / dendrite formation after local administration [1, 5]: enhanced
- rescue of dendrites in the absence of xCav2.3 ([1]; local administration, xCav2.3α1E-A-MO (FIG. 15N)): failed to rescue dendrites
- expression of xCav2.3α1E after local administration (xCav2.3α1E; [5]): enhanced
- expression of xCav2.3α1E after local administration in the absence of Sema3A (xCav2.3α1E; [6]): induced the expression of xCav2

Compound: xCav2.3α1E-A-MO: antisense morpholino oligonucleotide against xCav2.3α1E mRNA (SEQ ID NO: 7) (antisense CTATGTGATATGATTATTTATGACC; all phosphorodiamidate morpholino (PMO))
- MAP2-IR in the MO-injected side of spinal cords [1]: significantly reduced
- tau-1-IR in the MO-injected side of the spinal cords [2]: significant increase
- neurites of individual putative CINs in the MO-treated side [4]: multiple axon-like neurites

Compound: Netrin-1: another secreted factor that effects axon initiation in C. elegans
- MAP2-IR (cultured xSCINs; [7]): no significant effect
- tau-1 immunoreactivity (IR) (cultured xSCINs; [7]): no significant effect

Compound: SNP-1: the soluble Npn-1 ectodomain peptide that sequesters Sema3A
- Sema3A-induced conversion of tau-1-positive axons to MAP2-positive dendrites in the presence of the agent (cultured xSCINs; agent bath-applied with Sema3A): prevented
